Results from US20240158446A1, “CYCLIC COMPOUND HAVING SELECTIVE INHIBITORY ACTION ON KRAS OVER HRAS AND NRAS” (CHUGAI SEIYAKU KABUSHIKI KAISHA, priority 2021, published 2024).
Where two headings read alike, the source gives them in different places. Where a SMILES comes first, the peptide text is derived from it. Bridges are numbered along the chain shown (N, C = ends). [ ]: non-standard residue; d: D form. The star is where a group is joined. hPhe(3-Cl-4-CF3) = N[C@@H](CCc1ccc(C(F)(F)F)c(Cl)c1)C(=O)O; NPrPhe(4-CF3) = CCCN[C@@H](Cc1ccc(C(F)(F)F)cc1)C(=O)O; NEtPhe(4-F) = CCN[C@@H](Cc1ccc(F)cc1)C(=O)O; NMePhe(4-Me) = CN[C@@H](Cc1ccc(C)cc1)C(=O)O; NMeGly(cPent) = CN[C@H](C(=O)O)C1CCCC1; Hyp = O=C(O)[C@@H]1C[C@@H](O)CN1; NMeD = CN[C@@H](CC(=O)O)C(=O)O; NMeL = CN[C@@H](CC(C)C)C(=O)O; Morpholide = C1CN(*)CCO1; NMeA = CN[C@@H](C)C(=O)O; NMeAib = CNC(C)(C)C(=O)O; Nle = CCCC[C@H](N)C(=O)O; Piperidide = C1CCN(*)CC1; Ac5c = NC1(C(=O)O)CCCC1; Aze = O=C(O)[C@@H]1CCN1; Ac4c = NC1(C(=O)O)CCC1; NEtG = CCNCC(=O)O; Sar = CNCC(=O)O

Legend:
[1] = molecular target: GDP-bound NRAS wild-type protein (Homo sapiens, UniProt P01111); test: Binding to NRAS by surface plasmon resonance (SPR), Single Cycle Kinetics; conditions: for NRAS/KRAS (ratio of KD value with respect to NRAS to KD value with respect to KRAS) / NRAS/KRAS (ratio of KD value for NRAS to KD value for KRAS): SPR, GDP-bound NRAS wild-type protein vs GDP-bound KRAS wild-type protein
[2] = molecular target: GDP-bound HRAS wild-type protein (Homo sapiens, UniProt P01112); test: Binding to HRAS by surface plasmon resonance (SPR), Single Cycle Kinetics; conditions: for HRAS/KRAS (ratio of KD value with respect to HRAS to KD value with respect to KRAS) / HRAS/KRAS (ratio of KD value for HRAS to KD value for KRAS): SPR, GDP-bound HRAS wild-type protein vs GDP-bound KRAS wild-type protein
[3] = molecular target: GDP-bound KRAS wild-type protein (Homo sapiens, UniProt P01116); test: Binding to KRAS by surface plasmon resonance (SPR), Single Cycle Kinetics; conditions: GDP-bound KRAS wild-type protein, read-out: KRAS KD
[4] = SPR Single Cycle Kinetics, 1:1 binding model

Chain of GDP-bound KRAS wild-type protein (P01116 whole entry): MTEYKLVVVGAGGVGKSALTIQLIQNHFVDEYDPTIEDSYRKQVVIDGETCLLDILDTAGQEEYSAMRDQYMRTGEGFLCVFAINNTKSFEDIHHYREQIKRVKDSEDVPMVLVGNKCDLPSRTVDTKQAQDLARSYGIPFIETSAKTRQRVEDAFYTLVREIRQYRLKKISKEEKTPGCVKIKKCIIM
Chain of GDP-bound NRAS wild-type protein (P01111 whole entry): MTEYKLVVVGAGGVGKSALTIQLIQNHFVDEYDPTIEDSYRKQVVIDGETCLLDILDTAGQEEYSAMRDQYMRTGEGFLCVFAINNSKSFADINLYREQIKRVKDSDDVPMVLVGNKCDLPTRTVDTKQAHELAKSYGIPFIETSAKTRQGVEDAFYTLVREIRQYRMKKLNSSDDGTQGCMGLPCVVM
Chain of GDP-bound HRAS wild-type protein (P01112 whole entry): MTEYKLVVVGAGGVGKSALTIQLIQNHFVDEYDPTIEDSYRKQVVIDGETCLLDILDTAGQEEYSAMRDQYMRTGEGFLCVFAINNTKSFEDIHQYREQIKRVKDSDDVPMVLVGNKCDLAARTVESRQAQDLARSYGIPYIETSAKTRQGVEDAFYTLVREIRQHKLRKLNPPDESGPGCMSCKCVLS

| SMILES | Kd [3, 4] [nM] | NRAS/KRAS (ratio of KD value with respect to NRAS to KD value with respect to KRAS) [1] | HRAS/KRAS (ratio of KD value with respect to HRAS to KD value with respect to KRAS) [2] | NRAS/KRAS (ratio of KD value for NRAS to KD value for KRAS) [1] | HRAS/KRAS (ratio of KD value for HRAS to KD value for KRAS) [2] | other results |
| --- | --- | --- | --- | --- | --- | --- |
| CCC[C@H]1C(=O)N[C@@H]([C@@H](C)CC)C(=O)N(C2CC2)CC(=O)N(C)[C@H]2C/C=C\CCN(C2=O)[C@@H](Cc2ccc(C(F)(F)F)cc2)C(=O)N(C)CC(=O)N[C@@H](CCc2ccc(C(F)(F)F)c(OC)c2)C(=O)N2C[C@H](OCC)C[C@H]2C(=O)NC2(CC(C)(C)C2)C(=O)N(C)[C@@H](CC2CC2)C(=O)N(C)[C@H](C(=O)N(C)C)CC(=O)N1C [PP2815] | 3.6 | – | – | – | – | NRAS/KRAS (ratio of KD value with respect to GDP-bound NRAS wild-type protein to KD value with respect to KRAS) ([1]; SPR KD ratio NRAS/KRAS, class symbols): A (a compound having 10 or more and less than 20 is denoted as A); HRAS/KRAS (ratio of KD value with respect to GDP-bound HRAS wild-type protein to KD value with respect to KRAS) ([2]; SPR KD ratio HRAS/KRAS, class symbols): A (a compound having 10 or more and less than 20 is denoted as A) |
| CC[C@H](C)[C@@H]1NC(=O)[C@H](CC(F)(F)F)N(C)C(=O)C[C@@H](C(=O)N2CCOCC2)N(C)C(=O)[C@H](C2CCCC2)N(C)C(=O)C2(CCCC2)NC(=O)[C@@H]2CCCN2C(=O)[C@H](CCc2cc(F)c(C(F)(F)F)c(F)c2)NC(=O)CN(C)C(=O)[C@H](Cc2ccc(C(F)(F)F)cc2)N2CCCC[C@@H](C2=O)N(C)C(=O)CN(C)C1=O [PP0594] | 0.073 | C (A compound having a KD ratio of 0.1 or more and less than 3 is denoted as C) | B (a compound having 3 or more and less than 10 is denoted as B) | – | – | – |
| CC[C@H](C)[C@@H]1NC(=O)[C@H](CC(C)C)N(C)C(=O)C[C@@H](C(=O)N2CCOCC2)N(C)C(=O)[C@H](C2CCCC2)N(C)C(=O)C2(CCC2)NC(=O)[C@@H]2CCCN2C(=O)[C@H](CCc2cc(F)c(C(F)(F)F)c(F)c2)NC(=O)CN(C)C(=O)[C@H](Cc2ccc(C(F)(F)F)cc2)N2CCCC[C@@H](C2=O)N(C)C(=O)CN(C)C1=O [PP0560] | 0.05 | B (a compound having 3 or more and less than 10 is denoted as B) | B (a compound having 3 or more and less than 10 is denoted as B) | – | – | – |
| CCCN1C(=O)CN(C)C(=O)CNC(=O)[C@H]([C@@H](C)CC)NC(=O)[C@H](CC(C)C)N(C)C(=O)C[C@@H](C(=O)N2CCOCC2)NC(=O)[C@H](C2CCCC2)N(C)C(=O)C2(CCC2)NC(=O)[C@@H]2C[C@@H](OCC)CN2C(=O)[C@H](CCc2ccc(C(F)(F)F)c(Cl)c2)NC(=O)CN(C)C(=O)[C@@H]1Cc1ccc(C(F)(F)F)cc1 [PP0330] ([NMeL]IG[Sar][NPrPhe(4-CF3)][Sar][hPhe(3-Cl-4-CF3)][Hyp](Et)[Ac4c][NMeGly(cPent)]D-Morpholide; lactam N-11) | 0.95 | – | – | B (a compound having 3 or more and less than 10 is denoted as B) | C (A compound having a KD ratio of 0.1 or more and less than 3 is denoted as C) | – |
| CC[C@H](C)[C@@H]1NC(=O)[C@H](CC(C)C)N(C)C(=O)C[C@@H](C(=O)N2CCOCC2)N(C)C(=O)[C@H](C2CCCC2)N(C)C(=O)C2(CCCC2)NC(=O)[C@@H]2CCCN2C(=O)[C@H](CCc2cc(F)c(C(F)(F)F)c(F)c2)NC(=O)CN(C)C(=O)[C@H](Cc2ccc(C(F)(F)F)cc2)N2CCCCC[C@@H](C2=O)N(C)C(=O)CN(C)C1=O [PP0490] | 2.4 | B (a compound having 3 or more and less than 10 is denoted as B) | B (a compound having 3 or more and less than 10 is denoted as B) | – | – | – |
| CCO[C@@H]1C[C@H]2C(=O)NC3(CC(C)(C)C3)C(=O)N(C)[C@@H](C(CC)CC)C(=O)N(C)[C@H](C(=O)N(C)C)CC(=O)N(C)[C@@H](CC3CC3)C(=O)N[C@@H]([C@@H](C)CC)C(=O)N(C)CC(=O)N(C)[C@H]3C/C=C\CCN(C3=O)[C@@H](Cc3ccc(C(F)(F)F)cc3)C(=O)N(C)CC(=O)N[C@@H](CCc3cc(F)c(C(F)(F)F)c(F)c3)C(=O)N2C1 [PP2119] | – | – | – | A (a compound having 10 or more and less than 20 is denoted as A) | B (a compound having 3 or more and less than 10 is denoted as B) | Kd ([3]; SPR, Single Cycle Kinetics): 5 nM |
| CC[C@H](C)[C@@H]1NC(=O)[C@H](CC)N(C)C(=O)C[C@@H](C(=O)N(C)C)N(C)C(=O)[C@H](C2CCCC2)N(C)C(=O)C2(CCC2)NC(=O)[C@@H]2CCN2C(=O)[C@H](CCc2cc(F)c(C(F)(F)F)c(F)c2)NC(=O)CN(C)C(=O)[C@H](Cc2ccc(C(F)(F)F)cc2)N2CCCC[C@@H](C2=O)N(C)C(=O)CN(C)C1=O [PP0657] | 0.076 | B (a compound having 3 or more and less than 10 is denoted as B) | B (a compound having 3 or more and less than 10 is denoted as B) | – | – | – |
| CCO[C@@H]1C[C@H]2C(=O)NC3(CCCC3)C(=O)N(C)[C@@H](C3CCCC3)C(=O)N(C)[C@H](C(=O)N(C)C)CC(=O)N(C)[C@@H](CC(C)C)C(=O)N[C@@H]([C@@H](C)CC)C(=O)N(C)CC(=O)N(C)[C@H]3CC(C)=C(C)CN(C3=O)[C@@H](Cc3ccc(C(F)(F)F)cc3)C(=O)N(C)CC(=O)N[C@@H](CCc3cc(F)c(C(F)(F)F)c(F)c3)C(=O)N2C1 [PP1045] | – | – | – | C (A compound having a KD ratio of 0.1 or more and less than 3 is denoted as C) | C (A compound having a KD ratio of 0.1 or more and less than 3 is denoted as C) | Kd ([3]; SPR, Single Cycle Kinetics): 1.7 nM |
| CC[C@H](C)[C@@H]1NC(=O)[C@H](CC(C)C)N(C)C(=O)C[C@@H](C(=O)N2CCOCC2)N(C)C(=O)[C@H](C2CCCC2)N(C)C(=O)C2(CCCC2)NC(=O)[C@@H]2CCCN2C(=O)[C@H](CCc2ccc(C(F)(F)F)c(Cl)c2)NC(=O)CN(C)C(=O)[C@H](Cc2ccc(F)cc2)N(CC)C(=O)CN(C)C(=O)CN(C)C1=O [PP0213] ([NMeL]I[Sar][Sar][NEtPhe(4-F)][Sar][hPhe(3-Cl-4-CF3)]P[Ac5c][NMeGly(cPent)][NMeD]-Morpholide; lactam N-11) | 0.25 | – | – | C (A compound having a KD ratio of 0.1 or more and less than 3 is denoted as C) | C (A compound having a KD ratio of 0.1 or more and less than 3 is denoted as C) | – |
| CCCC[C@@H]1NC(=O)[C@H](CCc2ccc(C(F)(F)F)c(Cl)c2)NC(=O)CN(C)C(=O)[C@H](Cc2ccc(C)cc2)N(C)C(=O)[C@@H]2CCN2C(=O)[C@H](C)N(C)C(=O)[C@H]([C@@H](C)CC)NC(=O)[C@H](CC(C)C)N(C)C(=O)C[C@@H](C(=O)N2CCCCC2)N(C)C(=O)[C@H](CC(C)C)NC(=O)C(C)(C)N(C)C1=O [PP0047] ([NMeL]I[NMeA][Aze][NMePhe(4-Me)][Sar][hPhe(3-Cl-4-CF3)][Nle][NMeAib]L[NMeD]-Piperidide; lactam N-11) | 18 | – | – | C (A compound having a KD ratio of 0.1 or more and less than 3 is denoted as C) | C (A compound having a KD ratio of 0.1 or more and less than 3 is denoted as C) | – |
| CCO[C@@H]1C[C@H]2C(=O)NC3(CCC3)C(=O)N(C)[C@@H](C(CC)CC)C(=O)N(C)[C@H](C(=O)N(C)C)CC(=O)N(C)[C@@H](CC(C)C)C(=O)N[C@@H]([C@@H](C)CC)C(=O)N(C)CC(=O)N(C)[C@H]3C/C=C\CCN(C3=O)[C@@H](Cc3ccc(F)cc3)C(=O)N(C)CC(=O)N[C@@H](CCc3cc(F)c(C(F)(F)F)c(F)c3)C(=O)N2C1 [PP1519] | – | – | – | – | – | NRAS/KRAS (ratio of KD value for NRAS to KD value for KRAS) ([1]; KD ratio class): A (a compound having 10 or more and less than 20 is denoted as A); HRAS/KRAS (ratio of KD value for HRAS to KD value for KRAS) ([2]; KD ratio class): A (a compound having 10 or more and less than 20 is denoted as A); Kd ([3]; SPR, Single Cycle Kinetics, 1:1 binding model): 0.41 nM |
| CCCN1C(=O)CN(C)C(=O)CN(CC)C(=O)[C@H]([C@@H](C)CC)NC(=O)[C@H](CC(C)C)N(C)C(=O)C[C@@H](C(=O)N(C)C)NC(=O)[C@H](C2CCCC2)N(C)C(=O)C2(CCC2)NC(=O)[C@@H]2CCCN2C(=O)[C@H](CCc2ccc(C(F)(F)F)c(Cl)c2)NC(=O)CN(C)C(=O)[C@@H]1Cc1ccc(C(F)(F)F)cc1 [PP0368] ([NMeL]I[NEtG][Sar][NPrPhe(4-CF3)][Sar][hPhe(3-Cl-4-CF3)]P[Ac4c][NMeGly(cPent)]D-NMe2; lactam N-11) | 1.7 | – | – | B (a compound having 3 or more and less than 10 is denoted as B) | B (a compound having 3 or more and less than 10 is denoted as B) | – |
| CC(C)C[C@H]1C(=O)N[C@@H](C2CCC2)C(=O)N(C)CC(=O)N(C)[C@H]2CCCCN(C2=O)[C@@H](Cc2ccc(C(F)(F)F)cc2)C(=O)N(C)CC(=O)N[C@@H](CCc2cc(F)c(C(F)(F)F)c(F)c2)C(=O)N2CCC[C@H]2C(=O)NC2(CCCC2)C(=O)N(C)[C@@H](C2CCCC2)C(=O)N(C)[C@H](C(=O)N2CCOCC2)CC(=O)N1C [PP0596] | 0.1 | B (a compound having 3 or more and less than 10 is denoted as B) | B (a compound having 3 or more and less than 10 is denoted as B) | – | – | – |
